Experimental data: patent US20260356860A1, “2-SUBSTITUTED 3,4A,5,7,8,8A-HEXAHYDRO-4H-THIOPYRANO[4,3-DJPYRIMIDIN-4-ONES FOR WOUND TREATMENT” (priority 2022, published 2026)

Columns and labels:
new porcine skin = test: Strain (tensile strength) of healed wound; format: in vivo; details: day 21; for Strain (tensile strength) / Strain (tensile strength), Mean: topical
Protocol: Additional tests were performed including elasticity (Table 12); max force (Table 13); tensile strength (strain) (Table 14); energy peak (Table 15); rete-ridge formation; and collagen organization (plane polarized light) (FIG. 24) of the healed wound sites, described as follows.
A is saline (control), B is serum formulation (vehicle), C is GO-HA (vehicle), D is Compound 1; E is Compound 1+GO-HA; F is Compound 8; G is Compound 8+GO-HA; H is Compound 10; and J is Compound 10+GO-HA.
Strain (tensile strength) (N/mm^2) is the force required to pull/stretch a material to a breaking point. A 20% improvement over saline considered good. All compounds of Formula (I) tested with or without GO-HA ranged from 36% to 142% improvement in tensile strength compared to the saline control.

closed excisional wounds = test: Closed excisional wound healing study (cosmesis); format: in vivo, Yucatan Miniature Swine; details: of 8 wounds
Protocol: The test composition in the closed excisional wound and burn studies for compounds without GO-HA (no GO-HA added) was a mixture with an overall concentration of 0.20 to 0.25 mg/mL of the respective compound in serum formulation as follows: compound (4 mg), butylene glycol (0.80 mL), polysorbate 20 (0.40 mL), ultra pure water (18 mL), and hydroxypropyl cellulose (0.12 g).
The test composition in the closed excisional wound and burn studies for compounds with GO-HA (Compound+GO-HA) was a mixture with an overall concentration of 1.0 mg/mL of the respective compound and 0.5 mg/mL of GO-HA in serum formulation as follows: compound (18 mg), PEG 400 (0.8 mL), GO-HA (9 mg), ultra pure water (18 mL), and hydroxypropyl cellulose (0.12 g).
The frequency of wound creation was once on dosing phase day 1. The frequency of dose administration was once on dosing phase days 1, 3, 5, 7, 9, 11, 13, 15, 17, 19, and 21. Each animal had twelve 5 cm×0.5 cm full thickness fusiform(spindle shaped) wound sites, spaced at least 3 cm apart to the appropriate depth and in a staggered pattern to reduce central cross-sectional wound tension.
Once […] was obtained, each wound was sutured closed using non-absorbable suture, the simple interrupted closure technique is shown in FIG. 13. Each wound had 5 simple interrupted sutures with a 0.5 to 1 cm interval between sutures.
Compounds of Formula (I) and controls were applied directly to the wound site in a generous layer evenly over the sutured wound using a sterile applicator as needed. After application, each wound site was covered with suitable sterile dressing materials.
Dressings were changed every dosing phase day at day 3, 5, 7, 9, 11, 13, 15, 17, 19, and 21, and sutures were removed on dosing phase day 15. After dose administration on each dosing day, the wounds were covered with dressings as described above.
All animals were scheduled to be terminated on dosing phase day 22. At termination, the entire wound site (dose site) was collected separately for each site and included at least 0.5 cm margin skin and a depth below the wound bed. […]

| SMILES | Strain (tensile strength) (new porcine skin; individual value 1) [N/mm^2] | Strain (tensile strength) (new porcine skin; individual value 2) [N/mm^2] | Strain (tensile strength) (new porcine skin; individual value 3) [N/mm^2] | Strain (tensile strength) (new porcine skin; individual value 4) [N/mm^2] | Strain (tensile strength) (new porcine skin; individual value 5) [N/mm^2] | Strain (tensile strength), Mean (new porcine skin) [N/mm^2] | wounds with improved cosmesis / visible appearance than the control (closed excisional wounds) | improvement in tensile strength (strain) compared to the saline control (new porcine skin) [%] |
| --- | --- | --- | --- | --- | --- | --- | --- | --- |
| CC(C)(OCCO)c1ccc(-c2nc3c(c(=O)[nH]2)CSCC3)cc1 [Compound 8, 2-(4-(2-(2-hydroxyethoxy)propan-2-yl)phenyl)-3,5,7,8-tetrahydro-4H-thiopyrano[4,3-d]pyrimidin-4-one] | 7.640 | 4.427 | 2.939 | 6.900 | 2.913 | 4.964 | 2 of 8 |  |
| O=c1[nH]c(-c2ccc(B(O)O)cc2)nc2c1CSCC2 [Compound 1, (4-(4-oxo-3,5,7,8-tetrahydro-4H-thiopyrano[4,3-d]pyrimidin-2-yl)phenyl)boronic acid] | 2.568 | 3.906 | 10.226 | 5.738 |  | 5.609 | 7 of 8 |  |
| O=c1[nH]c(-c2ccc(-c3ccc(B(O)O)cc3)cc2)nc2c1CSCC2 [Compound 10, (4′-(4-oxo-3,5,7,8-tetrahydro-4H-thiopyrano[4,3-d]pyrimidin-2-yl)-[1,1′-biphenyl]-4-yl)boronic acid] | 6.792 | 11.592 | 5.862 | 5.506 |  | 7.438 | 3 of 8 | 105 |
